According to patent publication US11472807B2, “Purine derivatives for use as medicament and for use in treating neurodegenerative or neuro-inflammatory disorders” (COMMISSARIAT À L'ENERGIE ATOMIQUE ET AUX ENERGIES …, priority 2017, dated 2022):

How the values were obtained:
CREB = CREB mRNA in OHSC (RT-qPCR); type: cell-based; conditions: OHSCs from WT mice, 50 μM, 10 days
Protocol: (§1) FIG. 15. Plots illustrating the effect of Aftin-5 on relative mRNA expression levels of Long Term Potentialisation (LTP) biomarkers, i.e CREB (A), PSD95 (B) and BDNF (C) in C57B16J OHSC mice treated chronically with Aftin-5. OHSC culture media of OHSC were replaced by incubation medium containing Aftin-5 (50 μM; A50) or vehicle (0.1% DMSO; Veh). 10 days later, total mRNA in lysate was isolated and purified, cDNAs were then synthesized from […] of total mRNA. cDNAs were amplified by quantitative RT-PCR and the relative expression of specific genes was normalized to the housekeeping gene HPRT1 (2^—ΔCt). […] Data expressed as means+/−SEM from q=3 independent experiments with n=4-6 inserts/condition and 10 slices/insert. […]
(§2) The impact of Aftin-5 on gene expression of different biomarkers was determined by measuring mRNA levels of selected BDNF, CREB, PS95, INS Receptor/IGF-1 receptor, IL-1β, IL-6 in OHSC treated chronically with Aftin-5 or in a total brain from mice exposed to Aftin-5 at either 8 or 30 mg/Kg. […] RNA concentration was measured spectrophotometrically at 260 nm in a NanoDrop 2000c (Thermo Scientific, Villebon-sur-Yvette, France) (sample A260 nm/A280 nm ratios over 1.8 indicated reduced genomic DNA contamination). cDNAs were synthesized from 0.5 μg of total RNA with RT^2 First Strand kit (Qiagen, Courtaboeuf, France) according to the manufacturer's protocol and stored at −80° C. […]

[1] = system: TNF-α, IL-1β and IL-6 mRNA; test: Cytokine mRNA in OHSC from transgenic 3×Tg-AD mice (RT-qPCR); type: cell-based, transgenic Tau mice (3×Tg-AD); conditions: OHSC from transgenic mice overexpressing P-Tau, 50-150 μM, 10 days, vs vehicle
Protocol: FIG. 11. Plots illustrating the effect of Aftin-5 mediated attenuation of TNF-α (A) and IL-1β (B) and IL-6 (C) in organotypic hippocampal slice cultures from wild type mice (C57BI/6J) and transgenic Tau mice (3×Tg-AD). 3 Tg organotypic hippocampal slice cultures media were replaced by incubation medium containing Aftin-5 at 50 μM (A50), 100 μM (A100) and 150 μM (A150) or vehicle (0.1% DMSO; Veh). After chronic treatment (10 days) total mRNA in lysate was isolated and purified, cDNAs were then synthesized from […] of total mRNA. cDNAs were amplified by quantitative RT-PCR and the relative expression of specific genes was normalized to the housekeeping gene HPRT1 (2^−ΔCt). […] Data expressed as means+/−SEM (n=2-6 wells/condition) from q=2 independent experiments with n=2-6 inserts/conditions and 10 slices/insert. […]
The impact of Aftin-5 on gene expression of different biomarkers was determined by measuring mRNA levels of selected BDNF, CREB, PS95, INS Receptor/IGF-1 receptor, IL-1β, IL-6 in OHSC treated chronically with Aftin-5 or in a total brain from mice exposed to Aftin-5 at either 8 or 30 mg/Kg. […] Threshold cycles (Ct) of target gene and cyclophilin A (Ppia−control housekeeping gene) were recorded and gene expression was calculated as 2^−ΔΔCt(ΔΔCt=ΔCttreated−ΔCtcontrol, ΔCt=Cttarget−CtPpia). […]

BDNF = BDNF mRNA in OHSC (RT-qPCR); type: cell-based; conditions: OHSCs from WT mice, 50 μM, 10 days
Protocol: as §1, §2

CREB, BDNF, PSD95 = test: mRNA of CREB, BDNF, PSD95 in brains of chronically treated WT mice; type: in vivo; conditions: brains from WT mice treated chronically
Protocol: The impact of Aftin-5 on gene expression of different biomarkers was determined by measuring mRNA levels of selected BDNF, CREB, PS95, INS Receptor/IGF-1 receptor, IL-1β, IL-6 in OHSC treated chronically with Aftin-5 or in a total brain from mice exposed to Aftin-5 at either 8 or 30 mg/Kg. Total RNA was extracted with TRIzol@ reagent and purified on RNeasy® minikit columns (Qiagen, Courtaboeuf, France). Briefly, cells were lysed with 0.5 mL of TRIzol@ reagent by pipetting. After addition of 100 μL of chloroform, mixtures were centrifuged at 10000 g for 15 min at 4° C., supernatants mixed with 600 μL of 70% ethanol and loaded onto RNeasy® columns. Total RNA was washed and eluted with RNase-free water according to manufacturer's protocol and stored at −80° C. RNA concentration was measured spectrophotometrically at 260 nm in a NanoDrop 2000c (Thermo Scientific, Villebon-sur-Yvette, France) (sample A260 nm/A280 nm ratios over 1.8 indicated reduced genomic DNA contamination). cDNAs were synthesized from 0.5 μg of total RNA with RT^2 First Strand kit (Qiagen, Courtaboeuf, France) according to the manufacturer's protocol and stored at −80° C. […] Threshold cycles (Ct) of target gene and cyclophilin A (Ppia−control housekeeping gene) were recorded and gene expression was calculated as 2^−ΔΔCt(ΔΔCt=ΔCttreated−ΔCtcontrol, ΔCt=Cttarget−CtPpia). […]

SMILES: CC[C@H](CO)Nc1nc(N(C)c2ccccc2)c2ncn(C(C)C)c2n1 [Aftin-5]
- CREB mRNA (CREB): transcriptional upregulation
- cytokine-mRNA synthesis (TNF-α, IL-1β, IL-6) [1]: decreases
- BDNF mRNA (BDNF): transcriptional upregulation
- mRNA for CREB, BDNF as well as for PSD95 in brain (CREB, BDNF, PSD95): high mRNA
